The record followed here is patent US9394284B2, “Compounds act at multiple prostaglandin receptors giving a general anti-inflammatory response” (Allergan, Inc., priority 2010, dated 2016).

What all share (type): cell-based
In test [1] the target is T1, human prostanoid TP receptor (Homo sapiens, UniProt P21731).
T1 construct: expressed in transfected cells
T1 sequence (P21731 1-343): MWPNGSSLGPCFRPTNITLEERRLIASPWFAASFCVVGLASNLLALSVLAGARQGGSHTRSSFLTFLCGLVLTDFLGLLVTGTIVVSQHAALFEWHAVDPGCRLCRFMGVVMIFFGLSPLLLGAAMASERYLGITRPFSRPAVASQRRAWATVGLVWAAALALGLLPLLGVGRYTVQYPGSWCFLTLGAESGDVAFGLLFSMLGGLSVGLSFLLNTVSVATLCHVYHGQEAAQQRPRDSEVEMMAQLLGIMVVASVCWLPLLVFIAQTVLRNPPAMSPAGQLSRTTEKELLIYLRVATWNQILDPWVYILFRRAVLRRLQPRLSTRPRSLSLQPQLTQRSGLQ
The test is described as follows: FLIPR Ca2+ signaling antagonist assay, TP receptor stable cell line. The note with it: HEK-293 EBNA stable cell line; standard agonist U-46619; NA = inactive (no antagonism or Kb 10,000 nM); PAg, Ag not defined. How it is done: (§1) The above compounds were tested for PG antagonist activity as follows using human recombinant prostanoid receptor (DP1, EP1-4, FP, IP and TP) stable cell lines:
(§2) In order to measure the response of Gs and Gi coupled prostanoid receptors as a Ca^2+ signal, chimeric G protein cDNAs were used. Stable cell lines over-expressing human prostanoid DP1, EP1-4, FP, IP, and TP receptors were established as follows:
(§3) Briefly, human prostanoid DP1, EP2, and EP4 receptor cDNAs were co-transfected with chimeric Gqs cDNA containing a haemagglutanin (HA) epitope; human prostanoid EP3 receptors were co-transfected with chimeric Gqi-HA; human EP1, FP, IP, and TP receptor cDNAs were expressed with no exogenous G-proteins. Gqs and Gqi chimeric cDNAs (Molecular Devices, Sunnyvale, Calif., U.S.A.), as well as cDNAs of prostanoid receptors, were cloned into a pCEP4 vector with a hygromycin B selection marker. Transfection into HEK-293 EBNA (Epstein-Barr virus nuclear antigen) cells was achieved by the FuGENE 6 transfection Reagent (Roche Applied Science, Indianapolis, Ind., USA). Stable transfectants were selected according to hygromycin resistance. Because Gqs and Gqi contained an HA epitope, G-protein expression was detected by Western blotting analysis using anti-mouse HA monoclonal antibody and horseradish peroxidase (HRP)-conjugated secondary antibody, while functional expression of prostanoid receptors was detected by FLIPR screening (Matias et al., 2004). These stable cell lines were validated using previously published antagonists at 10 μM against serial dilutions of standard agonists by FLIPR functional assays for Ca^2+ Signaling (as described below).
(§4) Ca^2+ signaling studies were performed using a FLIPR TETRA system (Molecular Devices, Sunnyvale, Calif., USA) in the 384-format. This is a high-throughput instrument for cell-based assays to monitor Ca^2+ signaling associated with GPCRs and ion channels. Cells were seeded at a density of 5×10^4 cells/well in BioCoat poly-D-lysine coated, black wall, clear bottom 384-well plates (BD Biosciences, Franklin lakes, NJ, USA) and allowed to attach overnight in an incubator at 37° C. The cells were then washed twice with HBSS-HEPES buffer (Hanks' balanced salt solution without bicarbonate and phenol red, 20 mM HEPES, pH 7.4) using an ELx405 Select CW Microplate Washer (BioTek, Winooski, Vt., USA). After 60 min of dye-loading in the dark using the Ca^2+-sensitive dye Fluo-4AM (Invitrogen, Carlsbad, Calif., USA), at a final concentration of 2×10^−6M, the plates were washed 4 times with HBSS-HEPES buffer to remove excess dye and leaving 50 μl of buffer in each well. The plates were then placed in the FLIPR TETRA instrument and allowed to equilibrate at 37° C. AGN-211377 was added in a 25 μl volume to each well to give final concentrations of 0.1 μM, 0.3 μM, 1 μM, 3 μM, 10 μM, and 30 μM; or 0.067 μM, 0.1 μM, 0.2 μM, 0.3 μM, 0.67 μM, and 1 μM for cells over-expressing TP receptors. After 4.5 minutes, a 7-point serial dilution of the standard agonist for the corresponding receptor, in a 25 μl volume was injected at the final concentrations from 10^−11M to 10^−5M in 10-fold serial dilution increments for cells expressing human recombinant DP1, EP1, EP2, EP3, EP4, FP, and IP receptors. The dose range for the standard agonist for human recombinant TP receptors was from 10^−12 M to 10^−6 M. HBSS-HEPES buffer was used as the negative control for the standard agonists. Cells were excited with LED (light emitting diode) excitation at 470-495 nm and emission was measured through an emission filter at 515-575 nm. Assay plates were read for 3.5 minutes using the FLIPR^TETRA. The peak increase in fluorescence intensity was recorded for each well. On each plate, negative controls, dose response of positive controls, and co-treatments of antagonist-agonist for each dose were in triplicates.
(§5) Standard agonists were as follows: DP=BW 245C, EP1-EP4=PGE2, FP=17-phenyl-PGF2α, IP=Cicaprost, and TP=U-46619. […]

In test [2] the target is T2, human prostanoid EP4 receptor (Homo sapiens, UniProt P35408).
T2 construct: expressed in transfected cells
T2 sequence (P35408 whole entry): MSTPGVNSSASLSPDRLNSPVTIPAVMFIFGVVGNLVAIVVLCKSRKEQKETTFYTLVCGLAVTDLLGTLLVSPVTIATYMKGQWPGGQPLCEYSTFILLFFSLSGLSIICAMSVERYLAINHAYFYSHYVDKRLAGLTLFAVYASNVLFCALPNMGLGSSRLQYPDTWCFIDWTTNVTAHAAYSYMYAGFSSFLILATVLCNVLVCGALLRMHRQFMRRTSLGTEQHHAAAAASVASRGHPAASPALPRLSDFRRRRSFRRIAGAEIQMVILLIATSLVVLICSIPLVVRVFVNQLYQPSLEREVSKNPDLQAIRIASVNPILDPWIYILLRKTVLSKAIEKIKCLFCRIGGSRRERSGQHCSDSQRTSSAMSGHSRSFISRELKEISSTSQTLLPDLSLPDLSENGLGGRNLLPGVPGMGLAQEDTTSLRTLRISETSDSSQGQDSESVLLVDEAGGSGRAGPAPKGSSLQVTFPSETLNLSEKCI
The test is described as follows: FLIPR Ca2+ signaling antagonist assay, EP4 receptor stable cell line. The following applies: HEK-293 EBNA stable cell line; standard agonist PGE2; NA = inactive (no antagonism or Kb 10,000 nM); PAg, Ag not defined. How it is done: as §1, §2, §3, §4, §5

The target of test [3] is T3, human prostanoid IP receptor (Homo sapiens, UniProt P43119).
T3 construct: expressed in transfected cells
T3 sequence (P43119 whole entry): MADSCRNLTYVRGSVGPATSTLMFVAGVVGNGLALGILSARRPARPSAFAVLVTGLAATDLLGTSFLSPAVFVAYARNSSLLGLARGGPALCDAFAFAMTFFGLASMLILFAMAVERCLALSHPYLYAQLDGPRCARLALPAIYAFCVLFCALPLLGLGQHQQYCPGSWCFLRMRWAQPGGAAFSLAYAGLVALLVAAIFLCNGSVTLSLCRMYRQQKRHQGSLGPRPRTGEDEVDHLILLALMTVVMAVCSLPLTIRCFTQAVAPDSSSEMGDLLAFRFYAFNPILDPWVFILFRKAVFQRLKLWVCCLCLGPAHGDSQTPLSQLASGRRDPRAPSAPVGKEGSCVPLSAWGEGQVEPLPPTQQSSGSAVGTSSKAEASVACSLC
Put plainly: FLIPR Ca2+ signaling antagonist assay, IP receptor stable cell line. The note with it: HEK-293 EBNA stable cell line; standard agonist Cicaprost; NA = inactive (no antagonism or Kb 10,000 nM); PAg, Ag not defined. How it is done:
as §1, §2, §3, §4, §5

Test [4] concerns the target T4, human prostanoid DP1 receptor (Homo sapiens, UniProt Q13258).
T4 construct: expressed in transfected cells
T4 sequence (Q13258 1-359): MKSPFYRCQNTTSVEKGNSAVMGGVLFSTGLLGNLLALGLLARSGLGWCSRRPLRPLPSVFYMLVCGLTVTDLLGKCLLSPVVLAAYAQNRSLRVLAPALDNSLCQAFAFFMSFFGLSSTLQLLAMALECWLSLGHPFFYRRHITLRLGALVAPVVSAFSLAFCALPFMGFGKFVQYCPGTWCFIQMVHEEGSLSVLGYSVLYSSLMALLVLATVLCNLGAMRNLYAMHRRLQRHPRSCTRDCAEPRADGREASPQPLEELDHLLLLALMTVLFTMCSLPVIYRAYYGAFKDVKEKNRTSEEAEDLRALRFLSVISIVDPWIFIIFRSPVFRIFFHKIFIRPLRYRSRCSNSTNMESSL
Put plainly: FLIPR Ca2+ signaling antagonist assay, DP1 receptor stable cell line. The note with it: HEK-293 EBNA stable cell line; standard agonist BW 245C; NA = inactive (no antagonism or Kb 10,000 nM); PAg, Ag not defined. How it is done:
as §1, §2, §3, §4, §5

The target of test [5] is T5, human prostanoid EP1 receptor (Homo sapiens, UniProt P34995).
T5 construct: expressed in transfected cells
T5 sequence (P34995 1-402): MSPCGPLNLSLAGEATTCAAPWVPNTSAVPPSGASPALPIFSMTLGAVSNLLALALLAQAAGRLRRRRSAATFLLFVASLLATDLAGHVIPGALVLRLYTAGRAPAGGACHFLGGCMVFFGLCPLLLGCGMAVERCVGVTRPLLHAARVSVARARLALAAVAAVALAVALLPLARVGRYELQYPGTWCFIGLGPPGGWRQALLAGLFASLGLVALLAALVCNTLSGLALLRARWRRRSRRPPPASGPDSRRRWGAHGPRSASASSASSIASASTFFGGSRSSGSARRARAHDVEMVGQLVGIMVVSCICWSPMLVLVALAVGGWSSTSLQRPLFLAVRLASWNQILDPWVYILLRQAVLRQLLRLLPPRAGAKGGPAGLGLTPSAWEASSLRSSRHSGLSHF
The test is described as follows: FLIPR Ca2+ signaling antagonist assay, EP1 receptor stable cell line. The note with it: HEK-293 EBNA stable cell line; standard agonist PGE2; NA = inactive (no antagonism or Kb 10,000 nM); PAg, Ag not defined. How it is done: as §1, §2, §3, §4, §5

Test [6] addresses T6, human prostanoid FP receptor (Homo sapiens, UniProt P43088).
T6 construct: expressed in transfected cells
The test is described as follows: FLIPR Ca2+ signaling antagonist assay, FP receptor stable cell line. The following applies: HEK-293 EBNA stable cell line; standard agonist 17-phenyl-PGF2α; NA = inactive (no antagonism or Kb 10,000 nM); PAg, Ag not defined. How it is done: as §1, §2, §3, §4, §5

T6 sequence (P43088 whole entry): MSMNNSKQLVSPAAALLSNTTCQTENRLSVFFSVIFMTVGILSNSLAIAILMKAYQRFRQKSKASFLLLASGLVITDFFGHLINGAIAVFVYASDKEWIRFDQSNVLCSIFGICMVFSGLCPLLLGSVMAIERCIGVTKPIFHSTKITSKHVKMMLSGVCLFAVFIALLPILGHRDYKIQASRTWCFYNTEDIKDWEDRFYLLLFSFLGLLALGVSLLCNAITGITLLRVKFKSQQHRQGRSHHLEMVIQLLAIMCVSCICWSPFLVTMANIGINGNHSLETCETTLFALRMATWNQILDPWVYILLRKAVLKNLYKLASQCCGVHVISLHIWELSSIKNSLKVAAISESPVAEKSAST

In the case of `Cc1cc(CCC(=O)NS(=O)(=O)C(F)(F)F)nn1Cc1cc(Br)ccc1OCC1CCCC1` [Example 18, N-(3-{1-[5-Bromo-2-(2-cyclopentylmethoxy)-benzyl]-5-methyl-1H-pyrazol-3-yl}-propionyl)-C,C,C-trifluoro-methanesulfonamide], the Kb in test [1] is 2 nM; in test [2], 300 nM; in test [3], 3100 nM; in test [4] it was 400 nM; in test [5], 14 nM; in test [6], 250 nM.

In the case of `CCC(C)CCOc1ccc(Br)cc1Cn1nc(CCC(=O)O)cc1C` (stereo not drawn) [Example 7, 3-[1-(5-Bromo-2-(3-methyl-pentyloxy)-benzyl)-5-methyl-1H-pyrazol-3-yl]-propionic acid], the Kb was found to be 2 nM in test [1]; 600 nM in test [2]; 3500 nM in test [3]; 490 nM in test [4]; 90 nM in test [5]; 90 nM in test [6].

Turning to `CCCCCCCOc1ccc(Br)cc1Cn1nc(CCC(=O)O)cc1C` [Example 15, 3-[1-(5-Bromo-2-heptyloxybenzyl)-5-methyl-1H-pyrazol-3-yl]-propionic acid], the antagonist dissociation constant (Kb) in test [1] came to 500 nM; in test [2] it was 8100 nM; in test [3], 2000 nM; in test [4], 400 nM; in test [6], 500 nM. The “EP1 (FLIPR) Kb” value in test [5] is “PAg”.

Consider `CCC(CC)COc1ccc(Br)cc1Cn1nc(CC(C)C(=O)O)cc1C` (stereo not drawn) [Example 67, 3-{1-[5-Bromo-2-(2-ethyl-butoxy)-benzyl]-5-methyl-1H-pyrazol-3-yl}-2-methyl-propionic acid], for which the Kb was 20 nM in test [1]; 70 nM in test [2]; 1500 nM in test [3]; 400 nM in test [4]; 10 nM in test [5]; 140 nM in test [6].

In the case of `Cc1cc(CC(C)C(=O)O)nn1Cc1cc(Cl)ccc1OCC1CCCC1` (racemic) [Example 70, 3-{1-[5-Chloro-2-(2-cyclopentylmethoxy)-benzyl]-5-methyl-1H-pyrazol-3-yl}-2-methyl-propionic acid], the antagonist dissociation constant (Kb) in test [1] came to 120 nM; in test [2], 80 nM; in test [3], 2000 nM; in test [4], 450 nM; in test [5] it was 30 nM; in test [6], 130 nM.

As for `C#Cc1ccc(OCC(CC)CC)c(Cn2nc(CCC(=O)O)cc2C)c1` [Example 64, 3-{1-[5-Ethynyl-2-(2-ethyl-butoxy)-benzyl]-5-methyl-1H-pyrazol-3-yl}-propionic acid], the antagonist equilibrium constant (Kb) in test [1] stood at 9 nM; in test [2], 500 nM; in test [3], 2000 nM; in test [4] it was 800 nM; in test [5], 270 nM; in test [6], 50 nM.

In the case of `CCC(CC)COc1ccc(C)cc1Cn1nc(CCC(=O)O)cc1C` [Example 65, 3-{1-[2-(2-Ethyl-butoxy)-5-methyl-benzyl]-5-methyl-1H-pyrazol-3-yl}-propionic acid], the antagonist equilibrium constant (Kb) amounted to 10 nM in test [1]; 100 nM in test [2]; 2300 nM in test [3]; 550 nM in test [4]; 150 nM in test [5]; 1300 nM in test [6].

In the case of `CCC(C)COc1ccc(Br)cc1Cn1nc(CCC(=O)O)cc1C` (stereo not drawn) [Example 10, 3-[1-(5-Bromo-2-(2-methyl-butoxy)-benzyl)-5-methyl-1H-pyrazol-3-yl]-propionic acid], the Kb in test [1] turned out to be 2 nM; in test [2], 100 nM; in test [3], 4200 nM; in test [4] it was 360 nM; in test [5] it was 12 nM; in test [6], 70 nM.

Take `CCc1ccc(OCC(CC)CC)c(Cn2nc(CCC(=O)O)cc2C)c1` [Example 66, 3-{1-[5-Ethyl-2-(2-ethyl-butoxy)-benzyl]-5-methyl-1H-pyrazol-3-yl}-propionic acid]: the Kb in test [1] is 8 nM; in test [2] it was 900 nM; in test [3] it was 1500 nM; in test [4], 260 nM; in test [5] it was 100 nM; in test [6], 500 nM.

In the case of `CCC(CC)COc1ccc(-c2ccccc2)cc1Cn1nc(CCC(=O)O)cc1C` [Example 63, 3-{1-[4-(2-Ethyl-butoxy)-biphenyl-3-ylmethyl]-5-methyl-1H-pyrazol-3-yl}-propionic acid], in test [1], the “TP (FLIPR) Kb” value is “PAg”. Further, the antagonist dissociation constant (Kb) in test [2] came out at 4000 nM; in test [3] it was 2200 nM; in test [4], 170 nM; in test [5], 700 nM; in test [6], 60 nM.

The term Kb denotes the affinity of an antagonist, worked out from how it opposes an agonist. A lower Kb goes with higher antagonist affinity.
